Data as given in patent US20050192360A1, “Method of treatment of pancreatic cancer” (priority 1999, published 2005).
Where a name gives a salt, the structure may show the parent alone. Read-outs that look alike come from different tables or passages of the source.

Legend:
[1] = system: xenografted Panc-1 human pancreatic tumors; assay: Human pancreatic cancer xenograft mouse model, monotherapy or combination with gemcitabine (Example 7); assay type: in vivo, male athymic nude (Ncr) mice; details: for Tumor re-growth after termination of treatment: 19 days post-treatment observation
Description: Human pancreatic cancer Panc-1 cells (2×10^6) are implanted subcutaneously into male athymic nude (Ncr) mice. […] The combination therapy group receives β-lapachone and gemcitabine on the same day in each treatment. Following treatment, the animals are observed for an additional 19 days. Tumors are measured throughout the treatment and post-treatment periods.

[2] = system: E2F-1 protein in Paca-2 cells; assay: Western blot of E2F-1 protein expression; assay type: cell-based, human
Description: Cells are harvested and whole cell lysates were prepared and resolved by SDS/PAGE, then Western blots are prepared using E2F-1 antibody obtained from Santa Cruz Biotechnology (Santa Cruz, Calif.) and an enhanced chemiluminescence assay system (Amersham Pharmacia).

normal cells = assay: In vitro experiments using cell lines of various tissue origins; assay type: cell-based
[3] = system: xenografted Panc-1 human pancreatic tumors; assay type: in vivo, athymic female nude mice (Ncr); details: 5 treatments
Description: Athymic female nude mice (Ncr) are inoculated subcutaneously with 4×10^6 human Panc-1 pancreatic cancer cells, and the tumors are allowed to grow to […] in size. The animals are randomized into three groups. […] Mean tumor volume is then analyzed.

Nc1ccn([C@@H]2O[C@H](CO)[C@@H](O)C2(F)F)c(=O)n1 [gemcitabine, 2′-deoxy-2′,2′-difluorocytidine monohydrochloride (β-isomer), reference compound]
Reduction of tumor size at termination of treatment ([1]; gemcitabine 120 mg/kg i.p., ten treatments every three days): 30-40%
Tumor re-growth after termination of treatment ([1]; gemcitabine 120 mg/kg i.p.): 400%

CC1(C)CCC2=C(O1)c1ccccc1C(=O)C2=O [β-lapachone, 3,4-dihydro-2,2-dimethyl-2H-naphtho[1,2-b]pyran-5,6-dione]
Concentration at which E2F-1 protein is induced (lowest concentration tested) ([2]; 0.5 hours exposure): 0.5 µM
E2F-1 protein expression (Western blot) ([2]; 0.5 hours exposure, 0.5, 2 or 4 μM): upregulated
Toxicity to normal cells in vitro (normal cells): relatively non-toxic
Tumor regression at termination of treatment ([1]; β-lapachone alone 40 mg/kg i.p., ten treatments every three days): 30-40%
Tumor re-growth after termination of treatment ([1]; β-lapachone alone 40 mg/kg i.p.): no significant re-growth
Mean tumor volume ([3]; 40 mg/kg intraperitoneally every three days): reduced
Mean tumor volume ([3]; 60 mg/kg intraperitoneally every three days): reduced
